Test results as given in US20020164581A1 (priority 2001, published 2002).

Key:
[1] = tested on: bovine aortic endothelial cells (bAECs); experiment: Lysophosphatidylcholine or homocysteine/Cu2+ challenge of E2-pretreated cells, cell survival; assay type: cell-based
Method: Prior to E2 pretreatment, cells were grown in phenol red-free DMEM supplemented with 10% dextran/charcoal-stripped FBS for at least 1 passage (3-4 days). Phenol red-free Dulbecco's modified medium was used to avoid potential estrogenic interference. Serum steroid deprivation was conducted according to the conditions described by Yeh et al. (Proc. Natl. Acad. Sci. USA 95:5527-5532, 1998). The E2 level in the stripped serum was assayed using an [^125I] 17β-estradiol radioimmunoassay kit (TKE21, Diagnostic Products Corporation, Los Angeles, Calif.). […] The cells grown in E2-free environments were plated onto Falcon 24-well Primariae™ plates at a density of 5×10^4 cells/well. […]
Cell survival after oxidative challenge was assessed with a 3-(4,5-dimethylthiazol-2-yl) 2,5 diphenyltetrazolium bromide (MTT) assay in which the mitochondrial dehydrogenase activity of viable cells reduces MTT to a blue formazan product (Carmichael et al. Cancer Res. 47:936-942, 1987). […] Following cell lysis, the absorbency was measured at 570 nm and used as an indicator of relative cell survival. The surviving fraction was calculated as compared to the cells without paraquat challenge.

[2] = tested on: antioxidant enzymes (SOD, CAT, GPX, GR) in bAECs; experiment: Antioxidant enzyme (AOE) activities in cell lysates, all four enzymes together; assay type: cell-based, bovine
Method: […] The cells were then lysed on ice by sonication at a setting of 50 mW, with 3×15 set cycles using a Cole-Parmer Ultrasonic Homogenizer (Chicago, Ill.). Protein concentrations in the samples were determined by the Bradford method with bovine serum albumin as a standard (Bradford, Anal. Biochem. 72:248-254, 1976).
(§1) SOD activity was determined by a method based on the ability of SOD to suppress epinephrine auto-oxidation (Misra and Fridovich, J.Biol. Chem. 247:3170-3175, 1972). One unit of SOD activity is defined as the amount of protein that inhibits the oxidation of epinephrine by 50%. Briefly, 100 μl of 10×-diluted cell homogenate (about 10 μg protein) was added to 900 μl of carbonate buffer (0.1 M NaHCO3, 0.1 M Na2CO3, 0.1 mM EDTA, pH 10.2) containing 0.7 mM of epinephrine. The absorbency of the mixture was measured for 4 minutes at 480 nm using a Hitachi U-2000 spectrophotometer (Hitachi, San Jose, Calif.).
(§2) CAT activity was determined by the method of Aebi (Methods Enzymol. 105:121,-126, 1984). One unit of CAT activity is defined as the amount of protein that degrades 1 μmole of H2O2 per minute. Initially, 10 μl of absolute ethanol was mixed with 100 μl of cell homogenates and pre-incubated at 4° C. for 30 minutes. Following the addition of 10 μl Triton X-100 (reduced form), a 100 μl aliquot (about 100 μg of protein) of the resultant mixture was next added to 500 μl of hydrogen peroxide (66 mM) and 400 μl of phosphate buffer (0.1 M NaH2PO4, 0.1 M Na2HPO4, 0.1 mM EDTA, pH 7.0). The absorbency of the mixture was monitored for one minute at 240 nm spectrophotometrically. The molar extinction coefficient of 43.6 M/cm was used to determine the catalase activity.
GPX activity was determined by a modified method of Flohe and Gunzler (Methods Enzymol. 105:114-121, 1984). One unit of GPX activity is defined as the amount of protein that oxidizes 1 nmole of β-NADPH per minute. In this assay, 100 μl of cell homogenate (about 100 μg protein) was added to 800 μl of phosphate buffer (0.1 M NaH2PO4, 0.1 M Na2HPO4, 0.1 mM EDTA, pH 7.0) containing 12.5 mM glutathione (reduced form, GSH), 0.2 mM β-nicotinamide adenine dinucleotide phosphate (reduced form, β-NADPH), and 0.34 U glutathione reductase. This mixture was pre-incubated at 37 C for 10 minutes and then 100 μl of 12 mM t-butyl hydroperoxide was added. The absorbency of the mixture was determined at 340 nm for 3 minutes. The molar extinction coefficient of 6.22 mM/cm was used to determine the activity of GPX.
(§3) GR activity was determined by a modified method of Carlberg and Mannervik (Methods Enzymol. 11 3:484-490, 1985). One unit of GR activity is defined as the amount of protein that oxidizes 1 nmole of β-NADPH per minute. Briefly, 50 μl of 2 mM β-NADPH in 10 mM Tris buffer (pH 7.0) was added to a cuvette containing 50 μl of 20 mM glutathione (oxidized ofrm, GSSG) in phosphate buffer (0.1 M NaH2PO4, 0.1 M Na2HPO4, 0.1 mM EDTA, pH 7.0) and 800 μl of phosphate buffer. Following the addition of cell homogenate (about 100 μg protein/100 μl) the final mixture was measured at 340 nm for 3 minutes. The molar extinction coefficient of 6.22 mM/cm was used to determine the activity of […].

[3] = tested on: superoxide dismutase (SOD); experiment: SOD activity in cell lysate (epinephrine auto-oxidation); assay type: cell-based, bovine
Method: (§4) Cells pretreated with different concentrations of E2 for 24 hours were harvested in a solution containing 50 mM Tris-HCl (pH 7.4), 1 mM EDTA, 2 μg/ml pepstatin A, 10 μg/ml benzamidine, and 10 μg/ml trypsin inhibitor. The cells were then lysed on ice by sonication at a setting of 50 mW, with 3×15 set cycles using a Cole-Parmer Ultrasonic Homogenizer (Chicago, Ill.). Protein concentrations in the samples were determined by the Bradford method with bovine serum albumin as a standard (Bradford, Anal. Biochem. 72:248-254, 1976).
as §1

[4] = tested on: catalase (CAT); experiment: CAT activity in cell lysate (H2O2 degradation); assay type: cell-based, bovine
Method: as §4, §2

[5] = tested on: glutathione reductase (GR); experiment: GR activity in cell lysate (NADPH oxidation); assay type: cell-based, bovine
Method: as §4, §3

[6] = tested on: cardiomyocytes; conditions: cited from earlier work
[7] = 1 nM E2 pretreatment (Example 8)
[8] = female bAECs, 24 h 1 nM E2 (Example 12)

Structure (SMILES): C[C@]12CC[C@@H]3c4ccc(O)cc4CC[C@H]3[C@@H]1CC[C@@H]2O [E2, 17β-estradiol]
- survival after homocysteine/Cu2+ challenge ([1]; homocysteine/Cu2+ 1 mM/25 μM, 3 hours): gained survival benefit
- survival after lysophosphatidylcholine challenge ([1]; lysophosphatidylcholine 10 μg/ml, 60 min): gained survival benefit
- AOE activities after brief incubation ([2]; 1 nM E2, 30 minutes): did not affect the activities of AOEs
- activities of the four antioxidant enzymes ([2]; 1 nM-10 μM E2, 24 h): significant increases in the activities of all four of the enzymes tested
- E2 concentration of optimal AOE induction ([2]; 24 h pretreatment): 1 to 10 nM
- AOE activities ([2]; female bAECs, 24 hour, 1 nM E2): significant elevation of all of the four AOE activities tested
- AOE activities ([2]; male bAECs incubated with 1 nM E2): not induced
- SOD activity elevation relative to untreated cells [3, 7]: approximately 4 fold
- SOD activity increase [3, 8]: about 4 fold
- CAT activity elevation relative to untreated cells [4, 7]: ~2 fold
- CAT activity increase [4, 8]: ~2 fold
- GR activity elevation relative to untreated cells [5, 7]: ~3 fold
- GR activity increase [5, 8]: ~2 fold
- effect on high K+-induced Ca++ loading or hypercontracture [6]: prevent high K+-induced intracellular Ca++ loading or hypercontracture
